According to patent publication US10259810B2, “N-sulfonylated pyrazolo[3,4-b]pyridin-6-carboxamides and method of use” (AbbVie S.à.r.l., priority 2015, dated 2019):

Assays:
ΔF508-CFTR = molecular target: T1, ΔF508-CFTR (Homo sapiens, UniProt P13569, DEL508-508); test: CFTR cell surface levels using HRP-tagged ΔF508-CFTR expressing CFBE cells, intrinsic corrector capacity; type: cell-based; parameters: % Activation: concentration or dose not given beside the values; details: HRP-tagged ΔF508-CFTR expressing CFBE41o- cells, compound alone (intrinsic corrector capacity), 20 hours at 33° C.; for EC50: read-out: EC50
T1 construct: host or cells: CFBE41o-, doxycycline-inducible
T1 sequence (P13569 with tags, fused parts or gaps DEL508-508): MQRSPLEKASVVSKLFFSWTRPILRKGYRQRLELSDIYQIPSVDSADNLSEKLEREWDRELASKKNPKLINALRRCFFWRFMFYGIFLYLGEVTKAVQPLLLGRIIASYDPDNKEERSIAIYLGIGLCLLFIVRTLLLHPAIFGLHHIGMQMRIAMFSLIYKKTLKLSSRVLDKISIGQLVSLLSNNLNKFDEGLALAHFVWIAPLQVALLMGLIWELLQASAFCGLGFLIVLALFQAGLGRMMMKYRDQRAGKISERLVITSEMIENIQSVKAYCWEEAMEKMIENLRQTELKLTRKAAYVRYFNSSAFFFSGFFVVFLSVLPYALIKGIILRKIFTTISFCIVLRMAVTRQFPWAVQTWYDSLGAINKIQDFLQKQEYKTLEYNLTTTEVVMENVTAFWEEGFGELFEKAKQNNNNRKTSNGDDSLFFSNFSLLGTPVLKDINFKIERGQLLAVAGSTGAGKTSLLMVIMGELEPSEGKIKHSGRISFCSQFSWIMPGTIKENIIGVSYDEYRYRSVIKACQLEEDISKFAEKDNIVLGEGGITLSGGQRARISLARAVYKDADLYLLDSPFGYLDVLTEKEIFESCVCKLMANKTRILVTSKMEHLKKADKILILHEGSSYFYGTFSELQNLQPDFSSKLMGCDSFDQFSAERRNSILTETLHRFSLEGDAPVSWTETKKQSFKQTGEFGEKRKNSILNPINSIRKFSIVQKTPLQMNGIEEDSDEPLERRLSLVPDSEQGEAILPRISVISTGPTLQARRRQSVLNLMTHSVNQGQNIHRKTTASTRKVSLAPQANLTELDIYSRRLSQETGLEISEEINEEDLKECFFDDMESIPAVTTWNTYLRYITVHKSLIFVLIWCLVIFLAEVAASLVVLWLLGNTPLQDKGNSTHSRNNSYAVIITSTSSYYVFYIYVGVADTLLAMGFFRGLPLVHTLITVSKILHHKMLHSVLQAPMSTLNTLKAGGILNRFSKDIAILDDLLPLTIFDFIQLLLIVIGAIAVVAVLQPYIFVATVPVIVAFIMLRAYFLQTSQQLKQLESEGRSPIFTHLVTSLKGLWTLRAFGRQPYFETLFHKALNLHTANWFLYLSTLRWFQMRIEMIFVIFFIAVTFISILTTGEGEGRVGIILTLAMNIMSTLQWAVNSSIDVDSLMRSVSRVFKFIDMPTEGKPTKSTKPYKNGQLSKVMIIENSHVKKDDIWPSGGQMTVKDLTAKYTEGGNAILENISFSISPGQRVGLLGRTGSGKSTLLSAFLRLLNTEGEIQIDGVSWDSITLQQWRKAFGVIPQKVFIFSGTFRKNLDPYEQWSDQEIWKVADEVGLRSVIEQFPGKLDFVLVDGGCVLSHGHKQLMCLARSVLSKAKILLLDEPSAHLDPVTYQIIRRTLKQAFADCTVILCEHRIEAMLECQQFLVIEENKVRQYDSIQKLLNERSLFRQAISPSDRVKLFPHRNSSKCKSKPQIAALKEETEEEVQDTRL
Method in brief: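 Surface ΔF508-CFTR was measured as HRP chemiluminescence from an extracellular-loop-4 tag, expressed as percent activity between DMSO and a […] corrector control.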

CFTR ΔF508 = molecular target: T2, CFTR ΔF508 (Homo sapiens, UniProt P13569, DEL508-508); test: Chronic TECC assay, primary bronchial epithelial cells of CF patients homozygous for CFTR ΔF508 (corrector, co-corrector and potentiator); type: cell-based; details: chronic TECC, Ieq = calculations based on the maximum current
T2 construct: bronchial epithelial cells isolated from CF patients homozygous for the CFTR ΔF508 mutation; McGill University; Asterand; University of North Carolina hAEC-CF; host or cells: primary human bronchial epithelial cells from CF patients homozygous for ΔF508, differentiated at air-liquid interface
T2 sequence (P13569 with tags, fused parts or gaps DEL508-508): as above
Method in brief: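 Primary bronchial epithelial cells from ΔF508-homozygous CF patients on collagen IV-coated Transwells were chronically treated with test compound plus corrector and potentiator, which were re-added before recording. Ieq was derived from PD and Rt in NaCl-Ringer, pH 7.4, at 37° C, with apical amiloride and bilateral forskolin, recorded every 2 min over 20 min. Ieq increase was normalized to controls, and EC50 was taken from per-well concentrations.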

In the case of CC(C)c1nn(-c2cccc(N3CCC3)c2)c2nc(C(=O)NS(C)(=O)=O)cc(-c3ccc(N4CCOCC4)cc3)c12 [Compound 10, 1-[3-(azetidin-1-yl)phenyl]-N-(methanesulfonyl)-4-[4-(morpholin-4-yl)phenyl]-3-(propan-2-yl)-1H-pyrazolo[3,4-b]pyridine-6-carboxamide], the “% Activation” value (ΔF508-CFTR) is reported as 418.25% and the EC50 (ΔF508-CFTR) is reported as 572 nM.

CC(C)c1nn(C2CCCCC2)c2nc(C(=O)NS(C)(=O)=O)cc(-c3cnc(N4CCOCC4)nc3)c12 [Compound 11, 1-cyclohexyl-N-(methanesulfonyl)-4-[2-(morpholin-4-yl)pyrimidin-5-yl]-3-(propan-2-yl)-1H-pyrazolo[3,4-b]pyridine-6-carboxamide] was tested, and the “% Activation” value (ΔF508-CFTR) was 164.7% and the EC50 (ΔF508-CFTR) was 557 nM.

In the case of Cc1nn(-c2ccccc2)c2nc(C(=O)NS(C)(=O)=O)cc(N3CCCCC3)c12 [Compound 13, N-(methanesulfonyl)-3-methyl-1-phenyl-4-(piperidin-1-yl)-1H-pyrazolo[3,4-b]pyridine-6-carboxamide], the “% Activation” value (ΔF508-CFTR) is reported as 153.85% and the EC50 (ΔF508-CFTR) is reported as 2360 nM.

CS(=O)(=O)NC(=O)c1cc(-c2ccc(N3CCC(C#N)CC3)nc2)c2c(C3CCC3)nn(C3CCCCC3)c2n1 [Compound 104, 4-[6-(4-cyanopiperidin-1-yl)pyridin-3-yl]-3-cyclobutyl-1-cyclohexyl-N-(methanesulfonyl)-1H-pyrazolo[3,4-b]pyridine-6-carboxamide] was tested, and the EC50 (CFTR ΔF508; read-out: EC50 (nM) (Ieq*)) was less than 30 nM, the “% Activity at 1 μM (Ieq*)” value (CFTR ΔF508; test compound at 1 μM) was 720% and the “% Activation” value (ΔF508-CFTR) was 239.6%. It also gave an EC50 (ΔF508-CFTR) of 497 nM.
